This is an account of results in US20260355329A1, “PRODRUG LINKER COMPOSITIONS AND METHODS OF USE” (priority 2023, published 2026).

A short description of series [1]: Release of ACC from Ac-Linker-ACC conjugates in mouse serum (serum stability). It is filed as in vitro ADME. To be noted: role: substrate; 50% mouse serum, 8 h. The protocol:
(§1) With the hit candidate in-hand, scarless cleavage was assessed with the turn-on fluorescent probe 7-amino-4-carbamoylmethylcoumarin (ACC), which only fluoresces when the ACC fluorophore is cleaved without an amino acid scar. To discover a scarless linker for LEHELGN (SEQ ID NO: 7), the following ACC conjugates (FIG. 9) were synthesized and cleavage rates were compared in 50% mouse serum and A. baumannii periplasmic extracts (FIGS. 10 and 11): Ac-LEHELGN-ACC (SEQ ID NO: 8), Ac-LEHELG-ACC (SEQ ID NO: 9), Ac-LEHEL-ACC (SEQ ID NO: 10), Ac-LEHE-ACC (SEQ ID NO: 11), Ac-LEH-ACC (SEQ ID NO: 12), Ac-LE-ACC, and Ac-L-ACC (note: Ac=acetyl).
To determine how each amino acid contributed to the selectivity of linker LEHELG (SEQ ID NO: 1), an ala scan was conducted. […] The cleavage rates of ala-substituted variants (P1-P6) were determined in mouse serum and in the periplasmic extracts from six strains of A. baumannii (FIG. 12).
Periplasmic extracts and mouse serum were not diluted prior to use in fluorescence assays and were allowed to undergo only one freeze-thaw cycle prior to use. […] The plate was sealed with a transparent polyolefin silicone film (Thermofisher™ Nuc™ Sealing Tape, 12-565-513) and placed in a plate reader at 37 °C with shaking at 225 rpm for 8 hours. […]

The subject of series [2] is A. baumannii periplasmic extract. In words: Release of ACC from Ac-Linker-ACC conjugates in A. baumannii periplasmic extract. It is filed as biochemical. As to conditions: role: substrate, 8 h. The method, then:
as §1
To determine how each amino acid contributed to the selectivity of linker LEHELG (SEQ ID NO: 1), an ala scan was conducted. Each position of the LEHELG (SEQ ID NO: 1) linker was substituted with a single alanine, the simplest amino acid containing a stereocenter, to create six variants. The P1 position is the amino acid directly adjacent to the cleavage site, which is conjugated to the ACC turn-on fluorophore. The cleavage rates of ala-substituted variants (P1-P6) were determined in mouse serum and in the periplasmic extracts from six strains of A. baumannii (FIG. 12). […]
Periplasmic extracts and mouse serum were not diluted prior to use in fluorescence assays and were allowed to undergo only one freeze-thaw cycle prior to use. […]

Series [3] concerns HL60 cells. In words: Cell viability assay (MTT) in HL60 cells. It is filed as cell-based. As to conditions: Homo sapiens, HL-60, 24 h, 0.07-10 μM, FIG. 14. The method, then: Cell Culture: HL-60 cells were cultured at 37 °C in a 5% CO2 atmosphere. The cells were grown in Iscove's Modified Dulbecco's Medium, supplemented with 20% fetal bovine serum (FBS) and 0.1% penicillin-streptomycin. Media was replaced every other day until cells reached the desired confluency.
Viability Assay: HL-60 cells (4×10^3) were seeded in a 96-well plate in cell culture media (100 μL) for 24 hours at the atmosphere stated above (5% CO2). After incubation, the cells were treated with 10 μL of vehicle or drug (0.07-10 μM, n=6) for 24 hours at 37 °C. Cell viability was assessed using MTT. MTT media (30 μL, 5 mg/mL) was added to each well for 2 hours and plate was centrifuged at 500×g for 5 minutes after, followed by media aspiration. The formazan crystals left were solubilized in DMSO and absorbance (540 nm) was measured using a microplate reader (SpectraMax M5). Data obtained was normalized to the vehicle to generate final values. The graph plotted in FIG. 14 is depicted as the mean±SEM vs. compound concentration.

The subject of series [4] is S. typhi ATCC 700931. In words: MIC, broth microdilution. It is filed as cell-based. As to conditions: Salmonella enterica, MH-II broth, 16 h, 37 °C, dipyridyl 200 μM for siderophore conjugates. From the text:
(§2) For full conjugate synthesis, the HMM siderophore (see FIG. 3) was chosen due to its ability to actively transport antibiotics into diverse bacteria. Solithromycin was chosen as a warhead to determine the quality of the cleavable linker in bacteria and to provide insight into the ability of the conjugate to actively transport through membranes. Solithromycin is a broad-spectrum antibiotic (G^+ and […]), and conjugates with this warhead require cleavage for activity, except in cases where the conjugate is actively transported to the cytoplasm, where the intact conjugate engages the target ribosome. When the minimum inhibitory concentration (MIC, minimum amount of drug to inhibit growth) of solithromycin equals the MIC of its cleavable L-linker conjugate, it indicates quantitative drug release, assuming the non-cleavable D-linker conjugate is not active (Table 1). D-linkers are not cleaved by most proteases.
(§3) Broth and Agar Preparation: Mueller-Hinton II (MH-II, cation-adjusted) broth was prepared from solid MH-II (22 g) and MilliQ H2O (1 L), which was autoclaved in a presterilized 1-L glass bottle. The autoclaved MH-II media contained dipyridyl (DP, 200 μM) for MIC assays involving siderophore conjugates. MH-II agar plates were prepared from autoclaved MH-II (22 g), Bacto agar (17 g), and MilliQ water (1 L). The bacterial strains were obtained from glycerol stocks.
(§4) Bacteria Culture Preparation: Bacteria were streaked on MH-II agar plates from glycerol stocks. The streaked plates were placed in an incubator at 37 °C without shaking for 18-hours. A sterilized pipet tip was gently touched on the surface of a single colony and added to autoclaved MH-II broth (5 mL) in a sterilized 14-mL culture tube. The cultures were incubated for 18 hours at 37 °C with shaking at 215 rpm. The cultures were diluted 200-fold into autoclaved MH-II broth (4 mL) and incubated at 37 °C with shaking at 215 rpm for 3-5 hours, or until an OD 600 of 0.5 was achieved. An aliquot of the culture (1 mL) was transferred to a sterilized culture tube and diluted with filter-sterilized PBS (~7 mL) until an OD600 of 0.13-0.15 was achieved. An aliquot ([…]) of the cultures was then transferred into MH-II media (15-mL) to achieve a concentration of 1×10^5 cells/mL. The diluted cultures (90 μL/well) were then added to substrate (10 μL at the following concentrations: 640 μg/mL, 320 μg/mL, 160 μg/mL, 80 μg/mL, 40 μg/mL, 20 μg/mL, 10 μg/mL, and 0 μg/mL in sterilized 96-well plates to achieve a final substrate concentration of 64 μg/mL, 32 μg/mL, 16 μg/mL, 8 μg/mL, 4 μg/mL, 2 μg/mL, 1 μg/mL, and 0 μg/mL. The 96-well plates were then sealed with sterilized gas-permeable covers. The plates were incubated at 37 °C with shaking at 215 rpm for 16 hours. Each well condition was prepared in triplicate, and each MIC assay was repeated on a different day. The turbidity of each well was examined visually and the MIC was counted as the lowest concentration that lacked turbidity.
Background: In broth dilution the organism is exposed to a series of concentrations in liquid medium.

In series [5] the test system is E. aerogenes ATCC 13048. In words: MIC, broth microdilution. As to conditions: Klebsiella aerogenes, ATCC13048, MH-II broth, 16 h, 37 °C, dipyridyl 200 μM for siderophore conjugates. It is filed as cell-based.
Description: as §2, §3, §4

Series [6] concerns A baumannii WC487. As to the kind of experiment: MIC, broth microdilution. It is filed as cell-based. To be noted: Acinetobacter baumannii, MH-II broth, 16 h, 37 °C, dipyridyl 200 μM for siderophore conjugates.
Description: as §2, §3, §4

Series [7] has as its system E. coli DCO. As to the kind of experiment: MIC, broth microdilution. To be noted: Escherichia coli, MH-II broth, 16 h, 37 °C, dipyridyl 200 μM for siderophore conjugates. It is filed as cell-based.
Description: as §2, §3, §4

The test system of series [8] is K. pneumoniae MGH 78578. As to the kind of experiment: MIC, broth microdilution. It is filed as cell-based. As to conditions: Klebsiella pneumoniae, MGH78578, MH-II broth, 16 h, 37 °C, dipyridyl 200 μM for siderophore conjugates.
Description: as §2, §3, §4

The subject of series [9] is A. baumannii 5075. In words: MIC, broth microdilution. As to conditions: Acinetobacter baumannii, MH-II broth, 16 h, 37 °C, dipyridyl 200 μM for siderophore conjugates. It is filed as cell-based.
Description: as §2, §3, §4

The subject of series [10] is S. enterica 14028s. In words: MIC, broth microdilution. It is filed as cell-based. As to conditions: Salmonella enterica, MH-II broth, 16 h, 37 °C, dipyridyl 200 μM for siderophore conjugates.
Description: as §2, §3, §4

For series [11], the system named is E. coli K12 MG1655. As to the kind of experiment: MIC, broth microdilution. It is filed as cell-based. As to conditions: Escherichia coli, MH-II broth, 16 h, 37 °C, dipyridyl 200 μM for siderophore conjugates.
Description: as §2, §3, §4

Series [12] deals with K. pneumoniae KPPR1. In words: MIC, broth microdilution. It is filed as cell-based. As to conditions: Klebsiella pneumoniae, MH-II broth, 16 h, 37 °C, dipyridyl 200 μM for siderophore conjugates.
Description: as §2, §3, §4

pEC50: −log10 of the molar value. In brackets after ≈: the same amount, converted by molar mass. Entries after “also recorded” stand apart in the source; their conditions may differ. Peptide text beside a SMILES is read from it. * marks the point of attachment. ACC = NC(=O)Cc1cc(=O)oc2cc(N*)ccc12 Where only a bound is given, the exact number is not on record here.

Take `CC(=O)N[C@@H](CC(C)C)C(=O)N[C@@H](CCC(=O)O)C(=O)N[C@@H](C)C(=O)N[C@@H](CCC(=O)O)C(=O)N[C@@H](CC(C)C)C(=O)NCC(=O)Nc1ccc2c(CC(N)=O)cc(=O)oc2c1` [Ac-LEAELG-ACC, Ac-LEAELG(SEQ ID NO: 3)-ACC] (Ac-LEAELG-{ACC}): the “stability in serum / release of ACC in serum (in words)” value in [1] is “did not show a significant loss of serum stability relative to the parent peptide”. Besides, the “cleavage rate / release of ACC in periplasmic extract (in words)” value in series [2] is “dramatically enhanced the cleavage rates in periplasmic extracts”.

`CC(=O)N[C@@H](CC(C)C)C(=O)N[C@@H](CCC(=O)O)C(=O)N[C@@H](Cc1c[nH]cn1)C(=O)N[C@@H](CCC(=O)O)C(=O)N[C@@H](CC(C)C)C(=O)NCC(=O)Nc1ccc2c(CC(N)=O)cc(=O)oc2c1` [Ac-LEHELG-ACC, Ac-LEHELG(SEQ ID NO: 63)-ACC] (Ac-LEHELG-{ACC}): in series [1], the “stability in serum / release of ACC in serum (in words)” value is on record as “Minimal release of ACC; also recorded: highest stability in mouse serum compared to all ala-substituted variants”. Moreover, in series [2], the “cleavage rate / release of ACC in periplasmic extract (in words)” value is on record as “cleaving rapidly”.

What is called pEC50 is the negative decadic logarithm of the EC50, by convention in mol/L. Low readings indicate a large EC50, high ones a small EC50. Compound `CO[C@@]12[C@H](COC(N)=O)C3=C(C(=O)C(C)=C(N)C3=O)N1C[C@@H]1N[C@@H]12` [mitomycin C, reference compound] gave a pEC50 in [3] of 6.00.

Broadly, the MIC is the lowest concentration found to suppress growth. A low value points to a more susceptible organism. `CC[C@H]1OC(=O)[C@@](C)(F)C(=O)[C@H](C)[C@@H](O[C@@H]2O[C@H](C)C[C@H](N(C)C)[C@H]2O)[C@](C)(OC)C[C@@H](C)C(=O)[C@H](C)[C@H]2N(CCCCn3cc(-c4cccc(N)c4)nn3)C(=O)O[C@]12C` [solithromycin]: the MIC in series [4] was 8 µM (≈ 6.76 µg/mL); in [5], 8 µM (≈ 6.76 µg/mL); in [6], 4 µM (≈ 3.38 µg/mL); in series [7], under 1 µM; in series [8], 4 µM (≈ 3.38 µg/mL); in series [9] it was 8 µM (≈ 6.76 µg/mL). Further, the MIC is 8 µM (≈ 6.76 µg/mL) in series [10], under 1 µM in series [11] and 4 µM (≈ 3.38 µg/mL) in [12].
